Data taken from patent US20070026080A1, “Manufacturing process for tigecycline” (Wyeth, priority 2005, published 2007).

Assay: Strength and degradation profile of tigecycline 20 mg/mL bulk solutions by reversed phase HPLC (effect of temperature, time, pH, dissolved oxygen; Runs A to O)
Assay type: physicochemical
Description: The contents of the sample vials are dissolved in diluent. The sample solution is diluted, if necessary, and chromatographed on a reversed phase column using gradient elution. Impurities are determined by comparing the impurity peak areas in the sample preparation chromatogram to the average area of tigecycline peaks in the standard preparation chromatograms obtained concomitantly.
Chromatographic Column—Length about 15 cm, inside diameter about 4.6 mm, packed with Inertsil ODS2, 5 μm size particles or equivalent.
Detector—Ultraviolet spectrophotometric detector capable of operating at 248 nm with a sensitivity of about 0.5 absorbance units full scale.
The results of additional studies to investigate the effect of processing parameters such as temperature, time, and dissolved oxygen content on the purity profile of tigecycline solutions using the following materials, methods and procedures are presented in Tables A to O.
The experiments were run in plastic glove bags under normal laboratory light conditions. Plastic glove boxes will be used to control the headspace of the beakers. The batch size was 200 mL. • 1. Prepare the glove bag with a mixture of nitrogen and air to achieve an oxygen level in the solution as per the design. • 2. Place the jacketed beaker on the magnetic stirrer. Connect it to the cooler. Set the cooler to the desired set point. • 3. Add 200 mL of SWFI in to the beaker. Allow equilibrating. Measure the temperature and oxygen content. When it reaches the desired condition, add accurately weighed API and mix until dissolved. If necessary use spatula to aid dissolution. For pH adjustments, use 4 mL of either 0.1N NaOH or 0.1N HCl and 196 mL of WFI for manufacture. • 4. After complete dissolution, Transfer about 5.5 mL of Solution in vials and stopper them. These vials will be stoppered at the appropriate headspace conditions. Place the vials in appropriate temperature conditions. • 5. Sample the vials at 1, 4, 8, 10, 12 and 24 hours. Send the samples for analysis. Freeze the 10, 12 and 24 samples at −20° C. for analysis the following day. • 6. Measure pH and record color of the solution at each time point. Results
The 1-hour samples were taken directly from the beakers. Samples for later time points were collected in stoppered vials processed in the atmosphere of the bag in order to simulate the headspace conditions then placed in water baths or refrigerator to maintain there respective temperature conditions. This was done to maintain safety in the lab. Disposable plastic glove bags require constant flow of a mixture of nitrogen and air to maintain headspace oxygen level that will result in the desired dissolved oxygen (DO) content in the sample. The pH of samples was measured at each sample points.
Strength and degradation profile was analyzed by HPLC as described above. […] Degradation was slightly higher at higher temperature condition.

[1] = Run #N, 8° C., pH 8.2, Oxygen = 0.1 mg/L, 4 Hrs
[2] = Run #N, 8° C., pH 8.2, Oxygen = 0.1 mg/L, 8 Hrs
[3] = Run #N, 8° C., pH 8.2, Oxygen = 0.1 mg/L, 12 Hrs
[4] = Run #N, 8° C., pH 8.2, Oxygen = 0.1 mg/L, 24 Hrs
[5] = Run #O, 20 mg/mL, 5° C., Oxygen = 0.1 mg/mL, hours 1,4,8,12,24 at r7-r11, time 1 h
[6] = Run #O, 20 mg/mL, 5° C., Oxygen = 0.1 mg/mL, hours 1,4,8,12,24 at r7-r11, time 4 h
[7] = Run #O, 20 mg/mL, 5° C., Oxygen = 0.1 mg/mL, hours 1,4,8,12,24 at r7-r11, time 8 h
[8] = Run #O, 20 mg/mL, 5° C., Oxygen = 0.1 mg/mL, hours 1,4,8,12,24 at r7-r11, time 12 h
[9] = Run #O, 20 mg/mL, 5° C., Oxygen = 0.1 mg/mL, hours 1,4,8,12,24 at r7-r11, time 24 h

## CN(C)c1cc(NC(=O)CNC(C)(C)C)c(O)c2c1C[C@H]1C[C@H]3[C@H](N(C)C)C(O)=C(C(N)=O)C(=O)[C@@]3(O)C(O)=C1C2=O [Tigecycline]
[1]
  RRT 0.78 MW = 557: BRL (BRL means below reporting limit (meaning less than 0.05% of tigecycline peak))
  RRT 1.12: BRL (BRL means below reporting limit (meaning less than 0.05% of tigecycline peak))
  RRT 1.45: 0.07%
  RRT 1.58: BRL (BRL means below reporting limit (meaning less than 0.05% of tigecycline peak))
  RRT 1.64 Mino: 0.10%
  RRT 1.67 MW = 556: BRL (BRL means below reporting limit (meaning less than 0.05% of tigecycline peak))
  RRT 1.85 MW = 597: 0.09%
  Strength: 19.378 mg/mL
  Total: 0.54%
[2]
  RRT 0.12 MW = 633: BRL (BRL means below reporting limit (meaning less than 0.05% of tigecycline peak))
  RRT 0.23 MW = 572: BRL (BRL means below reporting limit (meaning less than 0.05% of tigecycline peak))
  RRT 0.50 MW = 601: BRL (BRL means below reporting limit (meaning less than 0.05% of tigecycline peak))
  RRT 0.55 MW = 583: BRL (BRL means below reporting limit (meaning less than 0.05% of tigecycline peak))
  RRT 0.58: 0.07%
  RRT 0.64 9-Amino: BRL (BRL means below reporting limit (meaning less than 0.05% of tigecycline peak))
  RRT 0.74 Epimer: 0.22%
  RRT 0.76: BRL (BRL means below reporting limit (meaning less than 0.05% of tigecycline peak))
  RRT 0.78 MW = 557: BRL (BRL means below reporting limit (meaning less than 0.05% of tigecycline peak))
  RRT 1.12: BRL (BRL means below reporting limit (meaning less than 0.05% of tigecycline peak))
  RRT 1.45: 0.08%
  RRT 1.58: BRL (BRL means below reporting limit (meaning less than 0.05% of tigecycline peak))
  RRT 1.64 Mino: 0.08%
  RRT 1.67 MW = 556: BRL (BRL means below reporting limit (meaning less than 0.05% of tigecycline peak))
  RRT 1.85 MW = 597: 0.08%
  Strength: 19.275 mg/mL
  Total: 0.53%
[3]
  RRT 0.12 MW = 633: BRL (BRL means below reporting limit (meaning less than 0.05% of tigecycline peak))
  RRT 0.23 MW = 572: BRL (BRL means below reporting limit (meaning less than 0.05% of tigecycline peak))
  RRT 0.50 MW = 601: BRL (BRL means below reporting limit (meaning less than 0.05% of tigecycline peak))
  RRT 0.55 MW = 583: 0.07%
  RRT 0.58: 0.06%
  RRT 0.64 9-Amino: BRL (BRL means below reporting limit (meaning less than 0.05% of tigecycline peak))
  RRT 0.74 Epimer: 0.31%
  RRT 0.76: BRL (BRL means below reporting limit (meaning less than 0.05% of tigecycline peak))
  RRT 0.78 MW = 557: BRL (BRL means below reporting limit (meaning less than 0.05% of tigecycline peak))
  RRT 1.12: BRL (BRL means below reporting limit (meaning less than 0.05% of tigecycline peak))
  RRT 1.45: 0.08%
  RRT 1.58: 0.05%
  RRT 1.64 Mino: 0.11%
  RRT 1.67 MW = 556: 0.07%
  RRT 1.85 MW = 597: 0.08%
  Strength: 19.382 mg/mL
  Total: 0.83%
[4]
  RRT 0.12 MW = 633: BRL (BRL means below reporting limit (meaning less than 0.05% of tigecycline peak))
  RRT 0.23 MW = 572: BRL (BRL means below reporting limit (meaning less than 0.05% of tigecycline peak))
  RRT 0.50 MW = 601: BRL (BRL means below reporting limit (meaning less than 0.05% of tigecycline peak))
  RRT 0.55 MW = 583: BRL (BRL means below reporting limit (meaning less than 0.05% of tigecycline peak))
  RRT 0.58: 0.06%
  RRT 0.64 9-Amino: BRL (BRL means below reporting limit (meaning less than 0.05% of tigecycline peak))
  RRT 0.74 Epimer: 0.31%
  RRT 0.76: BRL (BRL means below reporting limit (meaning less than 0.05% of tigecycline peak))
  RRT 0.78 MW = 557: BRL (BRL means below reporting limit (meaning less than 0.05% of tigecycline peak))
  RRT 1.12: BRL (BRL means below reporting limit (meaning less than 0.05% of tigecycline peak))
  RRT 1.45: 0.10%
  RRT 1.58: 0.05%
  RRT 1.64 Mino: 0.13%
  RRT 1.67 MW = 556: 0.07%
  RRT 1.85 MW = 597: 0.11%
  Strength: 19.211 mg/mL
  Total: 0.82%
[5]
  RRT 0.74 Epimer: 0.21%
  RRT 1.85 MW = 597: 0.08%
  Strength: 18.777 mg/mL
[6]
  RRT 0.58: 0.09%
  RRT 0.74 Epimer: 0.23%
  Strength: 18.971 mg/mL
  Total: 0.53%
[7]
  RRT 1.45: 0.09%
  RRT 1.64 Mino: 0.06%
  RRT 1.85 MW = 597: 0.09%
  Strength: 19.051 mg/mL
[8]
  RRT 0.58: 0.07%
  RRT 0.74 Epimer: 0.24%
  RRT 1.45: 0.07%
  RRT 1.64 Mino: 0.08%
  RRT 1.85 MW = 597: 0.10%
  Strength: 18.722 mg/mL
  Total: 0.55%
[9]
  RRT 0.74 Epimer: 0.25%
  RRT 1.64 Mino: 0.11%
  RRT 1.85 MW = 597: 0.06%
  Strength: 19.238 mg/mL
  Total: 0.56%
Range of pH (7.7-8.2) studied
  effect of pH on the degradation of tigecycline bulk solution: did not have any significant effect
When oxygen is removed from the process and the temperature is controlled
  degradation: very little degradation is seen
